# According to patent US8377934B2, “Use of stilbene derivatives for treatment and prevention of aquatic mold infections” (State of Israel, Ministry of Agriculture & Rural …, priority 2006, dated 2013):
# Key:
# tilapia = test: in vivo; details: for LC50: tilapia, mortality up to 96 h
# Protocol: LC50 values were determined by static short-term tests as a measure of the relative acute lethal toxicity for tilapia (Standard methods for the evaluation of water and wastewater (1985) 16th ed. American Public Health Association, Washington, D.C. p. 689-819).
# Hybrid tilapia (Oreochromis niloticus X Oreochromis aureus) having an average weight of 20 g, were kept in 100 liter polyethylene tanks at a density of 1 fish per 10 liters, at a constant temperature of 21° C. for three weeks before the initiation of the experiment by addition of a test compound to each tank. […] For the latter experiments, fish were acclimated to the required temperature for three weeks prior to addition of the test compound to the tank. Fish were treated with 5 different concentrations of each test compound, determined according to the MIC values of each compound.
# Mortality of fish was recorded up to 96 h. Water parameters (O2, NH4^+, NO2^−, pH and Cl^−) were monitored throughout the experiment and were maintained within acceptable limits. The presented results are the mean of two separate experiments.
# S. parasitica T-1 = test: Broth macrodilution susceptibility testing (zoospores and cysts); type: cell-based, Saprolegnia parasitica; details: 24 h
# Protocol: (§1) Two methods were used, each suitable for a different phase of the asexual life cycle of Saprolegnia spp.: i) the broth macrodilution method, for determination of susceptibility of zoospores and cysts; and ii) the agar-dilution method for determination of susceptibility of filamentous hyphae. Each compound was tested three times in each method. Malachite Green was used as positive control.
# (§2) This method is a modification of the method used for molds according to EUCAST 7.1 (European Committee on Antibiotic Susceptibility Testing) and CLSI/NCCLS M27-A2 (Clinical Laboratory Standards Institute/National Committee for Clinical Laboratory Standards). For inoculum preparation, S. parasitica isolates were cultured on GP-PS for 7 days with sterile clover seeds at 18° C. […] Cysts and zoospores free from hyphae were collected, and an inoculum of ˜10^3 CFU/ml as measured by hemacytometer counting, was prepared in RPMI. Fluorescent Brightener 28 stock solution was prepared by adding 40% KOH gradually to a 10 mg/ml solution in water, until it was clear, then it was filtered twice through a 0.2 μm cellulose acetate nonpyrogenic sterile filter (Schleicher & Schuell, Dassel, Germany).
# (§3) Final drug concentrations in the test tubes ranged from 1×10^4 to 0.01 mg/L. Inoculum of 0.9 ml was added to each of a sterile tube containing 0.1 ml of the serially diluted drug. Two tubes containing drug-free medium and two tubes containing drug-free inoculum were used as controls. The inoculated tubes were incubated at room temperature (15-20° C.) for 24 h. The growth in each tube was then evaluated visually.
# S. parasitica CBS 540.67 [1] = test: as above; type: cell-based, Saprolegnia parasitica
# Protocol: as §1, §2, §3
# S. parasitica CBS 540.67 [2] = test: Agar-dilution susceptibility testing (filamentous hyphae); type: cell-based, Saprolegnia parasitica
# [3] = test system: Saprolegnia parasitica T-1; test: Tilapia-saprolegniosis early infection model; type: in vivo, Hybrid tilapia (Oreochromis niloticus X Oreochromis aureus)
# Protocol: Hybrid tilapia (Oreochromis niloticus X Oreochromis aureus), with an average weight of 20 g were treated against ectoparasites using 25 μg/ml of formaldehyde (37% v/v) two weeks prior to the experiment, and were maintained at a constant temperature of 21° C. in a 100 liter polyethylene tank. The water tank was cooled from an initial temperature of 21° C. to 14° C. over a period of 10 days. The water was kept at a constant temperature of 14° C. and the fish were acclimated for 4 days. Physical stress of abrasion was then applied by agitating 40 fish for 10 seconds within a plastic net (30×20 cm). Following this, a sterile stainless steel tea infuser containing 60 clover-seeds covered with hyphae of Saprolegnia parasitica T-1 (7 day old culture on GP-PS medium at 18° C.) was added to each tank, in which the fish density was 20 fish per 100 liters. This treatment lasted 48 h and allowed the dispersion of zoospores that were produced. The density of the zoospores in the water was determined according to the method described below, and was estimated as 5×10^2-2×10^3 zoospores per liter. The fish were then transferred to different tanks, and treated with Blankophor® BA (200, 100, 50 or 25 mg/L) or Malachite Green (0.25 mg/L) for 8 h at 13-14° C., with 10 fish per 100 L water. The treatments were applied on 2nd, 4th and 6th day following initiation of the experiment. The fish were monitored for 14 days for the presence of any lesion covered with hyphae, indicative of Saprolegnia infection. Skin biopsies of diseased and moribund fish were checked microscopically (10× and 40× magnification). Morbidity and mortality was monitored daily. Moribund and or dead fish were removed from all tanks during the experimental period.
# The determination of zoospore density in the water was performed according to Willoughby, L. G. (1994) Fungi and fish diseases, Pisces Press, Stirling, Scotland p. 57.
# In brief, a 1 liter sample of water from the 100 liter tank was divided into 1 and 10 ml aliquots in sterile Petri dishes. Each sample was diluted with water to give a final volume of 20 ml and then one sterile clover seed was added in order to attract and keep the zoospores. All the water samples were incubated at room temperature for 72 h allowing spore germination. The density of the zoospores was determined according to the number of seeds covered with visible mycelium.
# Treatments were carried out on the 2nd, 4th and 6th days after the initiation of the infection, and each treatment was for a period of 8 h. Fish treated with 0.25 mg/L Malachite Green served as a positive treatment control. Fish were monitored for 14 days. […] All fish treated with Blankophor BA survived for at least 10 days following initiation of the infection, in contrast to untreated fish which progressively died from the 3rd day.
# Due to the high efficacy of the treatment with 100 mg/L Blankophor® BA, additional experiments were performed using lower concentrations of Blankophor® BA (50 and 25 mg/L). As in the previous experiments, infected fish were treated in tanks containing different concentrations of the compound on the 2nd, 4th and 6th days after the initiation of the infection. In addition, two additional treatment regimens were added i.e. 50 mg/L (administered on the 2nd and 9th days after initiation of the infection) and 100 mg/L (administered on the 2nd day after initiation of the infection).
# [4] = S. parasitica CBS 540.67, 24 h, 15-20° C., geometric mean of three tests
SMILES,Toxicity (tilapia; Table 4 summary),LC50 (tilapia; 15° C.),LC50 (tilapia; 18° C.),LC50 (tilapia; 25° C.),"MIC, Macrodilution (S. parasitica T-1; S. parasitica T-1, 15-20° C., geometric mean of three tests) [µg/mL]","MIC, Macrodilution (S. parasitica CBS 540.67 [1]; [4]) [µg/mL]","MIC, Agar-dilution (S. parasitica CBS 540.67 [2]; [4]) [µg/mL]",preventing and treating saprolegniosis in tilapia fish ([3]; 25 mg/liter for 8 hours),"clinical observation, lesions ([3]; 50 and 100 mg/L)",culture for Saprolegnia ([3]; 50 and 100 mg/L),"survival following initiation of the infection ([3]; 100 and 200 mg/L, 8 h on 2nd, 4th and 6th day, all treated fish)","therapeutic efficacy (survival of fish) ([3]; 100 and 200 mg/L, 8 h on 2nd, 4th and 6th day, monitored 14 days)",Therapeutic efficacy ([3]; Table 4 summary),"efficacy in preventing and treating early stage saprolegniosis ([3]; even at a concentration as low as 25 mg/L, also 50 mg/L (days 2, 9) and 100 mg/L (day 2))",Toxicity (tilapia; in vivo),"MIC (S. parasitica T-1; Saprolegnia parasitica, read-out: MIC, Macrodilution) [µg/mL]","MIC (S. parasitica CBS 540.67 [1]; Saprolegnia parasitica, CBS540, 24 h, read-out: MIC, Macrodilution) [µg/mL]","MIC (S. parasitica CBS 540.67 [2]; Saprolegnia parasitica, CBS540, 24 h, read-out: MIC, Agar-dilution) [µg/mL]","fish died within 14 days ([3]; 100 mg/L on 2nd, 4th and 6th days) [%]"
O=S(=O)([O-])c1cc(Nc2nc(Nc3ccccc3)nc(N(CCO)CCO)n2)ccc1C=Cc1ccc(Nc2nc(Nc3ccccc3)nc(N(CCO)CCO)n2)cc1S(=O)(=O)[O-].[K+].[Na+] [Blankophor® BA],Low (low = >1000 ppm),">2,000 mg/L",">2,000 mg/L",">2,000 mg/L",100,200,200,effective,free of lesions,negative upon culture,at least 10 days,as effective as Malachite Green,Very Effective,highly effective,–,–,–,–,–
C=O [Formaldehyde],–,–,–,–,–,–,–,–,–,–,–,–,–,–,Moderate (key: High: high = 50 ppm; Moderate: moderate = 50-200 ppm; Low: low = >1000 ppm),100,100,100,70
